Measured values published in the supplement of paper PMC10307832.

How the values were obtained:
Test in all cases: relative viability (nuclei count vs DMSO), 5 days (fraction); higher = more cells survive
Adavosertib + Olaparib = compound: C=CCn1c(=O)c2cnc(Nc3ccc(N4CCN(C)CC4)cc3)nc2n1-c1cccc(C(C)(C)O)n1 [Adavosertib] + O=C(c1cc(Cc2n[nH]c(=O)c3ccccc23)ccc1F)N1CCN(C(=O)C2CC2)CC1 [Olaparib] (partner 8 µM)
In short: (§1)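 Values are medians from duplicate plates. Each reflects relative viability, defined as the nuclei count of treated wells over that of vehicle wells. Lung cancer cell lines in 1536-well plates were pin-tool dosed one day after seeding with one drug alone or with a fixed anchor-drug dose plus five library-drug doses (not always all listed) in √10 steps, then fixed, stained and imaged at 4× after 5 days.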

Adavosertib + Pemetrexed = compound: C=CCn1c(=O)c2cnc(Nc3ccc(N4CCN(C)CC4)cc3)nc2n1-c1cccc(C(C)(C)O)n1 [Adavosertib] + Nc1nc2[nH]cc(CCc3ccc(C(=O)N[C@@H](CCC(=O)O)C(=O)O)cc3)c2c(=O)[nH]1 [Pemetrexed] (partner 0.2 µM)
In short: as §1

Nelarabine + Vorinostat = compound: COc1nc(N)nc2c1ncn2[C@@H]1O[C@H](CO)[C@@H](O)[C@@H]1O [Nelarabine] + O=C(CCCCCCC(=O)Nc1ccccc1)NO [Vorinostat] (partner 1 µM)
In short: as §1

Nelarabine + Pictilisib = compound: COc1nc(N)nc2c1ncn2[C@@H]1O[C@H](CO)[C@@H](O)[C@@H]1O [Nelarabine] + CS(=O)(=O)N1CCN(Cc2cc3nc(-c4cccc5[nH]ncc45)nc(N4CCOCC4)c3s2)CC1 [Pictilisib] (partner 1 µM)
In short: as §1

Row | Cell Line | relative viability (Adavosertib + Olaparib; first compound 0.01 µM) | relative viability (Adavosertib + Olaparib; first compound 0.03162 µM) | relative viability (Adavosertib + Olaparib; first compound 0.1 µM) | relative viability (Adavosertib + Olaparib; first compound 0.3162 µM) | relative viability (Adavosertib + Pemetrexed; first compound 0.01 µM) | relative viability (Adavosertib + Pemetrexed; first compound 0.03162 µM) | relative viability (Adavosertib + Pemetrexed; first compound 0.1 µM) | relative viability (Adavosertib + Pemetrexed; first compound 0.3162 µM) | relative viability (Nelarabine + Vorinostat; first compound 0.01 µM) | relative viability (Nelarabine + Vorinostat; first compound 0.03162 µM) | relative viability (Nelarabine + Vorinostat; first compound 0.1 µM) | relative viability (Nelarabine + Vorinostat; first compound 0.3162 µM) | relative viability (Nelarabine + Vorinostat; first compound 1 µM) | relative viability (Nelarabine + Pictilisib; first compound 0.01 µM) | relative viability (Nelarabine + Pictilisib; first compound 0.03162 µM) | relative viability (Nelarabine + Pictilisib; first compound 0.1 µM) | relative viability (Nelarabine + Pictilisib; first compound 0.3162 µM) | relative viability (Nelarabine + Pictilisib; first compound 1 µM)
1 | LOU-NH91 | 0.857 | 0.917 | 0.946 | 0.928 | 0.371 | 0.371 | 0.338 | 0.36 | 0.993 | 0.814 | 0.889 | 0.931 | 0.873 | 0.515 | 0.464 | 0.487 | 0.527 | 0.54
2 | NCI-H647 | 0.549 | 0.581 | 0.459 | 0.209 | 0.155 | 0.159 | 0.141 | 0.123 | 0.764 | 0.798 | 0.716 | 0.456 | 0.583 | 0.475 | 0.363 | 0.492 | 0.445 | 0.37
3 | NCI-H3122 | 0.662 | 0.611 | 0.549 | 0.575 | 0.211 | 0.199 | 0.188 | 0.173 | 1.38 | 0.833 |  | 1.17 | 1.02 | 0.588 | 0.388 |  | 0.63 | 0.611
4 | NCI-H650 | 0.397 | 0.412 | 0.397 | 0.207 | 0.892 | 1.07 | 0.952 | 0.774 | 0.415 | 0.376 | 0.4 | 0.479 | 0.499 | 1.05 | 0.789 | 0.762 | 0.917 | 1.04
5 | H3255 | 0.604 | 0.522 | 0.667 | 0.583 | 0.553 | 0.59 | 0.563 | 0.536 | 0.904 | 0.786 | 0.777 | 0.961 | 0.8 | 0.534 | 0.494 | 0.456 | 0.394 | 0.477
6 | SW 1573 | 0.507 | 0.564 | 0.663 | 0.372 | 0.871 | 0.747 | 0.912 | 0.557 | 1.05 | 0.81 | 0.806 | 0.628 | 0.776 | 0.68 | 0.53 | 0.535 | 0.485 | 0.639
7 | HCC-15 | 0.73 | 0.727 | 0.958 | 0.876 | 0.221 | 0.227 | 0.216 | 0.229 | 1.1 | 0.905 | 0.829 | 0.887 | 0.973 | 0.893 | 0.669 | 0.76 | 0.871 | 0.832
8 | PC-3 [JPC-3] |  | 1.09 | 1.2 | 1.14 |  | 1.24 | 1.26 | 1.12 | 0.927 | 0.924 | 0.918 | 0.957 | 0.709 | 0.599 | 0.853 | 0.7 | 0.895 | 0.749
9 | NCI-H1915 | 0.258 | 0.277 | 0.264 | 0.269 | 0.528 | 0.464 | 0.346 | 0.259 | 0.599 | 0.544 | 0.488 | 0.573 | 0.57 | 1.08 | 0.939 | 1.04 | 0.959 | 1.01
